Article PMC8876135, “The Catestatin-Derived Peptides Are New Actors to Fight the Development of Oral Candidosis” (International Journal of Molecular Sciences, 2022)
In brackets after ≈: the same amount, converted by molar mass. Like-named read-outs stand apart in the source and are kept apart here. Non-standard residues stand in square brackets, D forms with d. Residues, ends and D or L forms follow the SMILES beside them.

Assays:
[1] = test system: Candida glabrata “R”; assay type: cell-based; details: 24 h, pH 5.6
Experimental: (§1) Strains of Candida albicans, Candida tropicalis and Candida glabrata, frequently found in cases of oral candidosis, were tested for L-bCtl and D-bCtl antimicrobial activity. The sensitive strain of C. albicans (ATCC 10231^TM) was provided by ATCC (Manassas, VA, USA). The resistant strain of C. albicans, the sensitive and resistant strains of C. tropicalis as well as the sensitive and resistant strains of C. glabrata were kindly provided by Dr Valérie Letscher-Bru (Laboratory of Parasitolology and Medical Mycology, Strasbourg, France).
(§2) Each Candida strain was first plated on agar plates and cultured for 24 h at 37 °C. After incubation, one colony per isolate was transferred into 5 mL of Sabouraud medium pH 5.6 (Sigma-Aldrich, Le Pont-de-Claix, France) supplemented with tetracycline (10 μg/mL) and cefotaxime (10 μg/mL) and incubated aerobically under agitation at 37 °C for 24 h. The resulting cultures were resuspended at an absorbance of 0.001 (OD600nm = 0.001) in Sabouraud medium. The OD600nm was evaluated with a spectrophotometer (BIO-RAD Smatspec^TM plus, Schiltigheim, France). In preliminary experiments, we tested RPMI-1640 culture and Sabouraud media. Similar data were obtained but the experiments were more reproducible with Sabouraud than with RPMI1640. Therefore, Sabouraud medium was used in the present study.
(§3) The yeasts (OD600nm = 0.001) were then plated on 96-well microplates and treated with different concentrations of the peptides of interest. After 24 h incubation at 37 °C under agitation, yeast growth was assessed by optical density (OD600nm) using a microplate spectrophotometer (Multiscan EX, Thermo Fisher Scientific, Waltham, MA, USA). All tests were performed in triplicate. The MIC (minimal inhibitory concentration), defined as the lowest concentration of drug able to inhibit 100% of the growth of a pathogen, was determined for the different peptides against all previously described Candida strains, using a modified Gompertz model.

[2] = test system: Candida tropicalis “S”; assay type: cell-based; details: 24 h, pH 5.6
Experimental: as §1, §2, §3

[3] = test system: Candida glabrata “S”; assay type: cell-based; details: 24 h, pH 5.6
Experimental: as §1, §2, §3

[4] = test system: Candida albicans “S” (ATCC 10231); assay type: cell-based; details: ATCC 10231, 24 h, pH 5.6
Experimental: as §1, §2, §3

[5] = test system: Candida tropicalis “R”; assay type: cell-based; details: 24 h, pH 5.6
Experimental: as §1, §2, §3

[6] = test system: Candida albicans “R”; assay type: cell-based; details: 24 h, pH 5.6
Experimental: as §1, §2, §3

[7] = test system: C. albicans; details: 24 h, 4 µM
Experimental: as §2, with “Similar data were obtained but the experiments were more reproducible with Sabouraud than with RPMI1640.” left out
The yeasts (OD600nm = 0.001) were then plated on 96-well microplates and treated with different concentrations of the peptides of interest. After 24 h incubation at 37 °C under agitation, yeast growth was assessed by optical density (OD600nm) using a microplate spectrophotometer (Multiscan EX, Thermo Fisher Scientific, Waltham, MA, USA). All tests were performed in triplicate.
The same method was used to evaluate the MICs of peptide/bovine serum albumin combinations (BSA).

[8] = test system: Candida albicans “S” (ATCC 10231); parameters: method as in Dartevelle et al. [28]; details: ref Dartevelle et al. [28], cited from earlier work; for MIC C. albicans “S”: values marked *, MIC = 100% growth inhibition
[9] = test system: “S” C. albicans; test: Transmission electron microscopy of treated cells; assay type: cell-based, Candida albicans; details: 1 × MIC and 10 × MIC, 1 h at 37 °C
Experimental: (§4) Precultures of sensitive and resistant Candida albicans strains were incubated for 2 h at 37 °C without shaking on glass bottom 24-well microplates previously treated with poly-L-lysine. The L-bCtl or D-bCtl peptides at concentrations of 1X MIC and 10X MIC were then added to the culture and incubated for 1 h at 37 °C with minimal shaking. The control samples correspond to the incubation of the different Candida albicans strains without any prior treatment. After 1 h incubation with or without each peptide of interest and a brief rinsing in 0.125 M cacodylate buffer, cells were fixed for 2 h 30 min in a 4% (v/v) glutaraldehyde buffered in 0.1 M sodium phosphate at pH 7.2. This step was followed with three 10 min washes in 0.1 M phosphate buffer at pH 7.2. Then the samples were post-fixed in a freshly prepared 2% (v/v) aqueous solution of potassium permanganate for 45 min at room temperature. The samples were washed three more times and dehydrated in graded series of ethanol of 7 min each. […]
(§5) Ultrathin sections were performed using a Reichert Jung Ultra-cut E ultra-microtome (Leica Microsystems, Nanterre, France) equipped with a diamond knife. […] Images were recorded on Kodak SO163 film (Sigma Aldrich, Saint-Quentin Fallavier, France). […]

[10] = test system: “R” C. albicans; test: Transmission electron microscopy of treated cells; assay type: cell-based, Candida albicans; details: 1 × MIC and 10 × MIC, 1 h at 37 °C
Experimental: as §4, §5

[11] = cited from earlier work
Excerpt: Host-defense peptides (HDPs) have emerged as new attractive candidates in the development of new antimicrobial agents. In addition, HDPs have been proven to be potent immune effectors via the orchestration of immune responses.

MIC Candida glabrata “R” [1] [µg/mL]	MIC Candida tropicalis “S” [2] [µg/mL]	MIC Candida glabrata “S” [3] [µg/mL]	MIC C. albicans “S” [4] [µg/mL]	MIC Candida tropicalis “R” [5] [µg/mL]	MIC C. albicans “R” [6] [µg/mL]	SMILES	inhibition [7]	MIC C. albicans “S” (as stated in discussion) ([8]; peptide alone, same figures as the * values of Tables 2 and 3) [µM]	MIC C. albicans “S” [8]	MIC C. albicans “S” ([8]; listed as D-form of bCtl) [µg/mL]	TEM observation [9]	TEM observation [10]	stability to bacterial degradation [11]
>100	50 (≈ 20.6 µM)	>100	30 (≈ 12.4 µM)	20 (≈ 8.24 µM)	50 (≈ 20.6 µM)	CSCC[C@H](NC(=O)[C@H](CO)NC(=O)[C@@H](N)CCCNC(=N)N)C(=O)N[C@@H](CCCNC(=N)N)C(=O)N[C@@H](CC(C)C)C(=O)N[C@@H](CO)C(=O)N[C@@H](Cc1ccccc1)C(=O)N[C@@H](CCCNC(=N)N)C(=O)N[C@@H](C)C(=O)N[C@@H](CCCNC(=N)N)C(=O)NCC(=O)N[C@@H](Cc1ccc(O)cc1)C(=O)NCC(=O)N[C@@H](Cc1ccccc1)C(=O)N[C@@H](CCCNC(=N)N)C(=O)NCC(=O)N1CCC[C@H]1C(=O)NCC(=O)N[C@@H](CC(C)C)C(=O)N[C@@H](CCC(N)=O)C(=O)N[C@@H](CC(C)C)C(=O)O [bCts] (H-RSMRLSFRARGYGFRGPGLQL-OH)	more than 90%	–	–	–	–	–	–
15.0 (≈ 8.06 µM)	8.1 (≈ 4.35 µM)	13.4 (≈ 7.2 µM)	–	2.0 (≈ 1.08 µM)	9.6 (≈ 5.16 µM)	CSCC[C@@H](NC(=O)[C@@H](CO)NC(=O)[C@H](N)CCCNC(=N)N)C(=O)N[C@H](CCCNC(=N)N)C(=O)N[C@H](CC(C)C)C(=O)N[C@H](CO)C(=O)N[C@H](Cc1ccccc1)C(=O)N[C@H](CCCNC(=N)N)C(=O)N[C@H](C)C(=O)N[C@H](CCCNC(=N)N)C(=O)NCC(=O)N[C@H](Cc1ccc(O)cc1)C(=O)NCC(=O)N[C@H](Cc1ccccc1)C(=O)N[C@H](CCCNC(=N)N)C(=O)O [Peptide P1] (H-[dR][dS][dM][dR][dL][dS][dF][dR][dA][dR]G[dY]G[dF][dR]-OH; N-terminus and C-terminus assumed)	–	5.5 (≈ 10.2 µg/mL)	5.5 * µg/mL	5.5 (≈ 2.96 µM)	fungal membrane lysis	fungal membrane lysis	–
>240	>240	>240	>240	>240	>240	CSCC[C@H](NC(=O)[C@H](CO)NC(=O)[C@@H](N)CO)C(=O)N[C@@H](CCCCN)C(=O)N[C@@H](CC(C)C)C(=O)N[C@@H](CO)C(=O)N[C@@H](Cc1ccccc1)C(=O)N[C@@H](CCCNC(=N)N)C(=O)N[C@@H](C)C(=O)N[C@@H](CCCNC(=N)N)C(=O)N[C@@H](C)C(=O)N[C@@H](Cc1ccc(O)cc1)C(=O)NCC(=O)N[C@@H](Cc1ccccc1)C(=O)N[C@@H](CCCNC(=N)N)C(=O)NCC(=O)N1CCC[C@H]1C(=O)NCC(=O)N1CCC[C@H]1C(=O)N[C@@H](CCC(N)=O)C(=O)N[C@@H](CC(C)C)C(=O)O [hCts] (H-SSMKLSFRARAYGFRGPGPQL-OH)	–	–	–	–	–	–	–
61.4 (≈ 33 µM)	9.8 (≈ 5.27 µM)	38.2 (≈ 20.5 µM)	–	2.0 (≈ 1.08 µM)	9.6 (≈ 5.16 µM)	CSCC[C@H](NC(=O)[C@H](CO)NC(=O)[C@@H](N)CCCNC(=N)N)C(=O)N[C@@H](CCCNC(=N)N)C(=O)N[C@@H](CC(C)C)C(=O)N[C@@H](CO)C(=O)N[C@@H](Cc1ccccc1)C(=O)N[C@@H](CCCNC(=N)N)C(=O)N[C@@H](C)C(=O)N[C@@H](CCCNC(=N)N)C(=O)NCC(=O)N[C@@H](Cc1ccc(O)cc1)C(=O)NCC(=O)N[C@@H](Cc1ccccc1)C(=O)N[C@@H](CCCNC(=N)N)C(=O)O [bCtl] (H-RSMRLSFRARGYGFR-OH)	–	–	–	–	–	–	resists bacterial degradation
